Assay results as given in the NIST ThermoML archive (doi:10.1016/j.jct.2009.08.002).
± gives the expanded uncertainty stated by the source.

Columns and labels:
[1] = molar heat capacity at constant pressure; conditions: 298.15 K; 101.33 kPa; Liquid; Large sample (1 g) DSC
[2] = molar heat capacity at constant pressure; xn = mol fraction of the nth substance listed; conditions: Liquid, Large sample (1 g) DSC, x2 = 0

Row | Compound | molar heat capacity at constant pressure [1] | molar heat capacity at constant pressure ([2]; 283.15 K) | molar heat capacity at constant pressure ([2]; 288.15 K) | molar heat capacity at constant pressure ([2]; 293.15 K) | molar heat capacity at constant pressure ([2]; 298.15 K) | molar heat capacity at constant pressure ([2]; 303.15 K) | molar heat capacity at constant pressure ([2]; 308.15 K) | molar heat capacity at constant pressure ([2]; 313.15 K) | molar heat capacity at constant pressure ([2]; 318.15 K) | molar heat capacity at constant pressure ([2]; 323.15 K)
1 | CCCCCCCC[n+]1ccn(C)c1.F[B-](F)(F)F [1-methyl-3-octylimidazolium tetrafluoroborate] | 498.3 ± 11 J/K/mol | – | – | – | – | – | – | – | – | –
2 | CC#N [acetonitrile] + CCCCCCn1cc[n+](C)c1.F[B-](F)(F)F | – | 90.03 ± 1.4 J/K/mol | 90.3 ± 1.4 J/K/mol | 90.6 ± 1.4 J/K/mol | 90.93 ± 1.4 J/K/mol | 91.28 ± 1.4 J/K/mol | 91.66 ± 1.4 J/K/mol | 92.07 ± 1.4 J/K/mol | 92.5 ± 1.4 J/K/mol | 92.96 ± 1.4 J/K/mol
3 | CCCCCCn1cc[n+](C)c1.F[B-](F)(F)F [1-hexyl-3-methylimidazolium tetrafluoroborate] | 432 ± 8 J/K/mol | – | – | – | – | – | – | – | – | –
4 | CC#N [acetonitrile] + CCCCCCCC[n+]1ccn(C)c1.F[B-](F)(F)F | – | 90.03 ± 1.4 J/K/mol | 90.3 ± 1.4 J/K/mol | 90.6 ± 1.4 J/K/mol | 90.93 ± 1.4 J/K/mol | 91.28 ± 1.4 J/K/mol | 91.66 ± 1.4 J/K/mol | 92.07 ± 1.4 J/K/mol | 92.5 ± 1.4 J/K/mol | 92.96 ± 1.4 J/K/mol
5 | CC#N [acetonitrile] | 90.93 ± 1.4 J/K/mol | – | – | – | – | – | – | – | – | –
